Like-named read-outs stand apart in the source and are kept apart here. In the oligonucleotide strings, read from the 5' end, every base follows the letter of its sugar. An asterisk marks phosphorothioate; unmarked linkages are phosphodiester. Other units and linkages are bracketed, terminal groups are in braces. A string of capitals states the bases alone. d = 2'-deoxy (DNA)
Key:
HIV-1 strain DV = assay: HIV-1 induced syncytia formation assay in SUP T1 cells; type: cell-based; conditions: SUP T1, HIV-1DV, four days; read-out: IC50 Syn (syncytium inhibition)
[1] = target: T1, FMLV reverse transcriptase (Friend murine leukemia virus, UniProt P26810); assay: Reverse transcriptase assay (ELOSA); type: biochemical; conditions: read-out: inhibitory concentration for 50% reduction in RT activity
T1 construct: Culture media containing FMLV reverse transcriptase (RT) was mixed with various concentrations; endogenous in cells; host or cells: culture medium of FMLV-infected murine fibroblasts (pLRB215)

HIV-1DV = assay: HIV-1 p24 production in SUP T1 cells; type: cell-based; conditions: SUP T1, HIV-1DV, four days
HIV-1 RT = HIV-1 RT (Human immunodeficiency virus type 1 group M subtype B, UniProt P04585); assay: In vitro inhibition of HIV-1 RT (kinetic analysis); type: biochemical
SUP T1 cells [2] = tested on: SUP T1 cells
[3] = target: HIV-1 gp120 interaction with CD4 (Human immunodeficiency virus type 1 group M subtype B, UniProt P04578)
T7 polymerase = T7 polymerase (Escherichia phage T7, UniProt P00573); assay: Bacterial T7 in-vitro transcription assay; type: biochemical
Chain of T7 polymerase (P00573 whole entry, the tested form may be a part): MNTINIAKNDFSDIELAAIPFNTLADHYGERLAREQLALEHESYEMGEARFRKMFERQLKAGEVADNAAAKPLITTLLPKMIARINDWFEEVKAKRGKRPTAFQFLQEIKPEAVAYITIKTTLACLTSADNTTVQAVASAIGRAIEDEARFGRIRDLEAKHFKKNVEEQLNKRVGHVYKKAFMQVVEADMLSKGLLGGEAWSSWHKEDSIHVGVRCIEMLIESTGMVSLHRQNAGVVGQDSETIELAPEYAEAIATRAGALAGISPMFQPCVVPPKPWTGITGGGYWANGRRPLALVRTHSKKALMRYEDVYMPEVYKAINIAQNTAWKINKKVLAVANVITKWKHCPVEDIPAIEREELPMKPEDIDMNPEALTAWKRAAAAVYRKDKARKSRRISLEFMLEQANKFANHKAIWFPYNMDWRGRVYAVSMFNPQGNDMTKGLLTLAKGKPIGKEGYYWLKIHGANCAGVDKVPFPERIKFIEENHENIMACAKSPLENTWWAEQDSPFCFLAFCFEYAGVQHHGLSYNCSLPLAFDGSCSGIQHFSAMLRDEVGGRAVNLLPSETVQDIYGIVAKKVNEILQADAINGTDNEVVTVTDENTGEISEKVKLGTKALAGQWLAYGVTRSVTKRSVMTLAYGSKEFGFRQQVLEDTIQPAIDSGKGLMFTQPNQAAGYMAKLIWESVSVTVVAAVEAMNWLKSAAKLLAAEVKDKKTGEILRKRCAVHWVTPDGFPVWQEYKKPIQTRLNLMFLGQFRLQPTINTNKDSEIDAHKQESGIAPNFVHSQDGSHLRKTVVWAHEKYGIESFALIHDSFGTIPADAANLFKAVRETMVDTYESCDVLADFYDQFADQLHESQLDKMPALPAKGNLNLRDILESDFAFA
Procedure: In this assay system, a 2 kb fragment (HindIII to EcoR1) of the FMLV virus (clone 57) was molecularly cloned between the HindIII/EcoR1 sites 10 bp downstream of the bacterial T7 promoter (p275A) or 50 bp downstream of the bacterial T3 promoter (pBSFMLV2). A schematic representation of these two recombinant plasmids can be seen in FIG. 1. Isolated recombinant DNA was then digested with DdeI. Oligonucleotides were then incubated with the digested DNA and the mixture was subjected to in-vitro transcription using either the T7 or T3 bacterial enzymes.

SUP T1 cells [4] = assay: Cytotoxicity assay, CellTiter 96 (MTS), SUP T1 cells; conditions: read-out: TC50 (concentration reducing cell proliferation by 50%); SUP T1, dye (MTS) metabolism assay
HSV-1 IE175 promoter = assay: Eukaryotic in vitro transcription (HeLa cell nuclear extract)
HSV-2 strain HG52 = assay: HSV-2 viral yield reduction assay in Vero cells

Substance: 5′-gttgggggttgttggtggggtggtgg-3′ [I100-12] (GTTGGGGGTTGTTGGTGGGGTGGTGG; phosphorothioate backbone, further chemistry not given here)
- IC50 (HIV-1 strain DV): 225 nM
- IC50 [1]: < 500 nM
- IC50 (HIV-1DV): < 200 nM
- Ki (HIV-1 RT): 5 nM
- IC50 (HIV-1 RT; read-out: ID50 (the source's name)): 15 nM
- CC50 (SUP T1 cells [2]): 18000 nM
- IC50 ([3]; read-out: ID50 [CD4], oligo binding to immobilized CD4): 475 nM
- IC50 ([3]; read-out: ID50 [gp 120], oligo preincubated with soluble gp120): 80 nM

Substance: 5′-gatccatgtcagtgacactgcgtagatccgatgatccagtcgatg-3′ [I100-11]
- T7 directed transcription (T7 polymerase): increased the level of specific transcripts
- CC50 (SUP T1 cells [4]): 46500 nM
- eukaryotic transcription from HSV-1 IE175 promoter (HSV-1 IE175 promoter): capable of inhibiting eukaryotic transcription

Substance: B106-97: fully phosphorothioated version of B106-71 (dG*dT*dG*dG*dT*dT*dG*dG*dT*dG*dG*dT*dG*dG*dT*dG*dT*dG*dT*dG*dG*dG*dT*dT*dT*dG*dG*dG*dG*dT*dG*dG*dG*dG*dG*dG; 3' end capped with propanolamine or cholesterol, which one not given here)
- concentration reducing virus by 50% (HSV-2 strain HG52): same levels as B106-96
